# Values of other authors, collected in patent publication US20220202008A1, “BAIT FOR A PEST” (FALCON LIFE SCIENCES LTD, priority 2020, published 2022).
# Test system: mouse
# Settings: acute dose
compound,measurement,value
"COC(C)(C)CCCC(C)CC=CC(C)=CC(=O)OC(C)C (stereo not shown) [methoprene, isopropyl 11-methoxy-3,7,11-trimethyldodeca-2,4-dienoate]",LD50,around 5000 ppm
